From patent US20110039799A1, “A1 ADENOSINE RECEPTOR AGONIST POLYMORPHS” (Gilead Palo Alto, Inc., priority 2009, published 2011)
Entries after “also recorded” stand apart in the source; their conditions may differ.

What was measured:
[1] = Water vapor sorption (dynamic vapor adsorption), hygroscopicity; type: physicochemical; conditions: adsorption/desorption 5% to 95% relative humidity
Experimental: Water vapor sorption data were collected on a VTI SGA-100 Vapor Sorption Analyzer. Adsorption and desorption data were collected over a range of 5% to 95% relative humidity (RH) at 10% RH intervals under a nitrogen purge. The samples were not dried prior to analyses. Equilibrium criteria used for the analyses were less than 0.0100% weight change in 5 minutes, with a maximum equilibration time of 3 hours if the weight criterion was not met. Data were not corrected for the initial moisture content of the samples. NaCl and PVP were used as calibration standards.

[2] = Solid-state stability by DSC thermogram (storage, wet granulation, direct compression, grinding); type: physicochemical; conditions: for stability when stored, in comparison to compound formed from Example 1: storage, ambient temperature and 75% relative humidity (Form III 5 months, Form IV 3 months)
Experimental: Differential scanning calorimetry (DSC) was performed using a TA Instruments differential scanning calorimeter either Q1000 or Q2000. The sample was placed into an aluminum DSC pan, and the weight accurately recorded. The pan was covered with a lid (sometimes the lid was perforated with a (laser) pinhole to allow for pressure release), and then either crimped or hermetically sealed. The sample cell was equilibrated at either 25° C. (Q2000) or 40° C. (Q1000) and heated under a nitrogen purge at a rate of 10° C./min, up to a final temperature of either 180 (Q1000)° C. or 250° C. (Q2000). Indium metal was used as the calibration standard.

[3] = in vivo, US 2007/018505 Example 32; cited from earlier work
[4] = cited from earlier work

solid-state stability by DSC thermogram when subjected to direct compression and grinding [2] | solid-state stability by DSC thermogram when subjected to wet granulation [2] | stability when stored, in comparison to compound formed from Example 1 [2] | Compound | hygroscopicity by dynamic vapor adsorption [1] | also measured
DSC thermogram change and instability | DSC thermogram change and instability | – | O[C@@H]1[C@H](O)[C@@H](CSc2ccccc2F)O[C@H]1n1cnc2c(N[C@@H]3CCC[C@H]3O)ncnc21 [Example 1, 2-{6-[((1R,2R)-2-hydroxycyclopentyl)amino]purin-9-yl}(4S,5S,2R,3R)-5-[(2-fluorophenylthio)methyl]oxolane-3,4-diol] | high hygroscopicity | DSC thermogram upon storage ([2]; storage at 40° C. and 75% relative humidity for 2 months): DSC thermogram change
not affected | not affected | enhanced stability | O[C@@H]1[C@H](O)[C@@H](CSc2ccccc2F)O[C@H]1n1cnc2c(N[C@@H]3CCC[C@H]3O)ncnc21 [Form III, 2-{6-[((1R,2R)-2-hydroxycyclopentyl)amino]purin-9-yl}(4S,5S,2R,3R)-5-[(2-fluorophenylthio)methyl]oxolane-3,4-diol] | non-hygroscopic; also recorded: not hygroscopic | stability to moisture, mechanical stress, pharmaceutical processing, and temperature changes, relative to other crystalline forms ([2]; general statement): superior
– | – | enhanced stability | O[C@@H]1[C@H](O)[C@@H](CSc2ccccc2F)O[C@H]1n1cnc2c(N[C@@H]3CCC[C@H]3O)ncnc21 [Form IV, 2-{6-[((1R,2R)-2-hydroxycyclopentyl)amino]purin-9-yl}(4S,5S,2R,3R)-5-[(2-fluorophenylthio)methyl]oxolane-3,4-diol] | non-hygroscopic; also recorded: not hygroscopic | –

Further lines, the compound ahead of its results:

Compound | solid-state stability by DSC thermogram when subjected to direct compression and grinding [2] | solid-state stability by DSC thermogram when subjected to wet granulation [2] | stability when stored, in comparison to compound formed from Example 1 [2] | hygroscopicity by dynamic vapor adsorption [1] | also measured
O[C@@H]1[C@H](O)[C@@H](CSc2ccccc2F)O[C@H]1n1cnc2c(N[C@@H]3CCC[C@H]3O)ncnc21 [GS-9667, 2-{6-[((1R,2R)-2-hydroxycyclopentyl)amino]purin-9-yl}(4S,5S,2R,3R)-5-[(2-fluorophenylthio)methyl]oxolane-3,4-diol] | – | – | – | – | circulating free fatty acides (FFA) [3]: lowering; insulin sensitivity [3]: improving; serum triglyceride (TG) levels [3]: lowering
Nc1ncnc2c1ncn2[C@@H]1O[C@H](CO)[C@@H](O)[C@H]1O [adenosine, Adenosine] | – | – | – | – | half-life [4]: less than 10 seconds
